Read-outs that look alike come from different tables or passages of the source.
Assays:
[1] = target: human recombinant transporter protein norepinephrine (NET) (Homo sapiens (Human), UniProt P23975); assay: radioligand binding assay, norepinephrine transporter
Method: (§1) The monoamine transporters inhibitory activities of selected compounds cycloalkylmethylamine derivatives comprising Formula (I) are reported herein. The compounds were evaluated using well established radioligand binding assays protocols (Galli, A. et al., J. Exp. Biol. 1995, 198, 2197-2212; Giros, B. et al., Trends Pharmcol. Sci. 1993, 14, 43-49; Gu, H. et al., J. Biol. Chem. 1994, 269(10), 7124-7130; Shearman, L. P. et al, Am. J. Physiol., 1998, 275(6 Pt 1), C1621-1629; Wolf, W. A. et al., J. Biol. Chem. 1992, 267(29), 20820-20825). The human recombinant transporter proteins dopamine (DAT), norepinephrine (NET) and serotonin (SERT) were selected for the in vitro assays. The radioligand binding assays were carried out at 11 different test concentrations […] to 1 μM.
(§2) The assays were carried out in duplicates and the quantitative data are reported as Ki in the TABLE 1.

[2] = target: human recombinant transporter protein serotonin (SERT) (Homo sapiens (Human), UniProt P31645); assay: radioligand binding assay, serotonin transporter
Method: as §1, §2

[3] = target: human recombinant transporter protein dopamine (DAT) (Homo sapiens (Human), UniProt Q01959); assay: radioligand binding assay, dopamine transporter
Method: as §1, §2

[4] = active metabolites of sibutramine; background statement; cited from earlier work
[5] = human recombinant NET, 11 test concentrations 0.1 nm to 1 μM, duplicates, read-out: NET Ki
[6] = human recombinant SERT, 11 test concentrations 0.1 nm to 1 μM, duplicates, read-out: SERT Ki
[7] = human recombinant DAT, 11 test concentrations 0.1 nm to 1 μM, duplicates, read-out: DAT Ki

Chain of human recombinant transporter protein dopamine (DAT) (Q01959 whole entry): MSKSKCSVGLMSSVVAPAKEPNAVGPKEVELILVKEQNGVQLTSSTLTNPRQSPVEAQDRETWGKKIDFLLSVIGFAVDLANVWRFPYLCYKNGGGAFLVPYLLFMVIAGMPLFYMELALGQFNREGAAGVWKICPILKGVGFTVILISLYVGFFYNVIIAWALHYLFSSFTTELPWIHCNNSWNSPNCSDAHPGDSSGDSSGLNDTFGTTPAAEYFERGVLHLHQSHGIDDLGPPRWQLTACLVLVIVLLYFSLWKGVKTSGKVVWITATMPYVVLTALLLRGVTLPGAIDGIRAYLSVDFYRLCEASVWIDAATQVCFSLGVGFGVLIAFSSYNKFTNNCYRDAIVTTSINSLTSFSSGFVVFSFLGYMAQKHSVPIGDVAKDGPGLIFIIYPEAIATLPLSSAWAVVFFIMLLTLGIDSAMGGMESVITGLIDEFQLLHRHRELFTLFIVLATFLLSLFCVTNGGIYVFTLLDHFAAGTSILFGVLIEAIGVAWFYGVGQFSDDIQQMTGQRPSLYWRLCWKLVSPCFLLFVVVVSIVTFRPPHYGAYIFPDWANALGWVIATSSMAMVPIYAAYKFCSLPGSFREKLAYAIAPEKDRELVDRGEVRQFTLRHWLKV
Chain of human recombinant transporter protein norepinephrine (NET) (P23975 whole entry): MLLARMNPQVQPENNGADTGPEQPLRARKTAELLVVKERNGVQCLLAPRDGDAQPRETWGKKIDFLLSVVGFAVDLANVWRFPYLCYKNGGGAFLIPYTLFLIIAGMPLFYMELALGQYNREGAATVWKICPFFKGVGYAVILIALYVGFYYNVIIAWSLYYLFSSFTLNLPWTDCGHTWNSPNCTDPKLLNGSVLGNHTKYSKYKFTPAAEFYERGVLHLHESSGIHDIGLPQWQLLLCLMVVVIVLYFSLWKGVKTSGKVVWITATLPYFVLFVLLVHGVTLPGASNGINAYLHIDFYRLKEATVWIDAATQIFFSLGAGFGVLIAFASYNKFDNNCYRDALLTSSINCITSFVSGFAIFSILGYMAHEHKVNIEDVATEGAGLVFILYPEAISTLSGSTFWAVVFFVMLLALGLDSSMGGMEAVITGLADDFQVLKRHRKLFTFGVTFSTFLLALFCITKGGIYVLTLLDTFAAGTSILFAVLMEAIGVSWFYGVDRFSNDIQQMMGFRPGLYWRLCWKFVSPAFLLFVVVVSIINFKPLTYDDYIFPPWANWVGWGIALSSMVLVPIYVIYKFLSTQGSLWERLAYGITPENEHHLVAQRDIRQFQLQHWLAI

Row | Compound | Ki [1, 5] [nM] | Ki [2, 6] [nM] | Ki [3, 7] [nM] | Ki [1] [nM] | Ki [3] [nM] | Ki [2] [nM] | elimination half-life [4] [h]
1 | 2-((1-(1-(3,4-Dichlorophenyl)cyclobutyl)-3-methylbutyl)amino)ethyl propionate [Compound 12q] | 38.2 | 10.6 | 7.2 |  |  |  | 
2 | CC(CCNCCCC(N)=O)CC1(c2ccc(Cl)c(Cl)c2)CCC1 (racemic) [33a -Racemic] | 50.1 | 8.1 | 1.5 |  |  |  | 
3 | CCOc1ccc(C2(CC(C)CCNCCCC(N)=O)CCC2)cc1 (racemic) [33b -Racemic] | > 10000 | 5.49 | 472 |  |  |  | 
4 | C[C@@H](CCNCCCC(N)=O)CC1(c2ccc(Cl)c(Cl)c2)CCC1 (single isomer, unassigned) [33a -(R)-Isomer] | 30.3 | 2.3 | 0.91 |  |  |  | 
5 | CCOc1ccc(C2(C[C@@H](C)CCNCCCC(N)=O)CCC2)cc1 (single isomer, unassigned) [33b -(R)-Isomer] | 6520 | 2.79 | 130 |  |  |  | 
6 | CCOc1ccc(C2(C[C@H](C)CCNCCCC(N)=O)CCC2)cc1 (single isomer, unassigned) [33b -(S)-Isomer] | 1090 | 329 | 4030 |  |  |  | 
7 | CCOc1ccc(C2(C(CC(C)C)NCCOC(=O)CC)CCC2)cc1 (centres unmarked) [Compound 12u, 2-((1-(1-(4-Ethoxyphenyl)cyclobutyl)-3-methylbutyl)amino)ethyl propionate] | 2340 | 5.7 | 80.4 |  |  |  | 
8 | CCOC(=O)NCCNC(CC(C)C)C1(c2ccc(Cl)c(Cl)c2)CCC1 (centres unmarked) [Compound 21a, Ethyl (2-((1-(1-(3,4-dichlorophenyl)cyclobutyl)-3-methylbutyl)amino)ethyl)carbamate] |  | 1 |  | 13.4 | 38.4 |  | 
9 | CCOC(=O)NCCNC(CC(C)C)C1(c2ccc(OCC)cc2)CCC1 (centres unmarked) [Compound 21b, Ethyl (2-((1-(1-(4-ethoxyphenyl)cyclobutyl)-3-methylbutyl)amino)ethyl)carbamate] |  |  |  | 1920 | 159 | 2 | 
10 | CCCC(=O)NCCNC(CC(C)C)C1(c2ccc(Cl)c(Cl)c2)CCC1 (centres unmarked) [Compound 31a, N-(2-((1-(1-(3,4-Dichlorophenyl)cyclobutyl)-3-methylbutyl)amino)ethyl)butyramide] |  | 27.8 |  | 77.7 | 52.7 |  | 
11 | CCCC(=O)NCCNC(CC(C)C)C1(c2ccc(OCC)cc2)CCC1 (centres unmarked) [Compound 31b, N-(2-((1-(1-(4-Ethoxyphenyl)cyclobutyl)-3-methylbutyl)amino)ethyl)butyramide] |  |  | 251 | 4730 |  | 25 | 
12 | CNC(CC(C)C)C1(c2ccc(Cl)cc2)CCC1 (centres unmarked) [Compound M1] |  |  |  |  |  |  | 14
13 | CC(C)CC(N)C1(c2ccc(Cl)cc2)CCC1 (centres unmarked) [Compound M2] |  |  |  |  |  |  | 16
